Experimental data from ChEMBL document CHEMBL1201862, “PubChem BioAssay data set” (2004).
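Exposure lasted 48 hours, with cells grown in 96-well plates and compounds tested at five concentrations. GI50 marks 50% less growth.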 Activity calls are given as the source filed them. No stated cut-off is given here; in the data, active = GI50 up to about 1.1 µM and inactive = higher.

Columns and labels:
Assay in all cases: NCI-60 cell line screen, 48 h
M19-MEL = tested on: M19-MEL
SF-295 = tested on: SF-295
OVCAR-3 = tested on: OVCAR-3
CCRF-CEM = tested on: CCRF-CEM
OVCAR-4 = tested on: OVCAR-4
HOP-62 = tested on: HOP-62
TK-10 = tested on: TK-10
K562 = tested on: K562
HCC 2998 = tested on: HCC 2998
UACC-257 = tested on: UACC-257
SK-OV-3 = tested on: SK-OV-3
HOP-92 = tested on: HOP-92
NCI-H23 = tested on: NCI-H23
U-251 = tested on: U-251
SR = tested on: SR
ACHN = tested on: ACHN

Compound: O=C1c2c(c(-c3ccccc3)c(-c3ccccc3)c(-c3ccccc3)c2-c2ccccc2)C(=O)N1c1cccc(Br)c1
- GI50 (M19-MEL): > 100 µM (inactive)
- GI50 (SF-295): > 100 µM (inactive)
- GI50 (OVCAR-3): > 100 µM (inactive)
- GI50 (CCRF-CEM): > 100 µM (inactive)
- GI50 (OVCAR-4): > 100 µM (inactive)
- GI50 (HOP-62): > 100 µM (inactive)
- GI50 (TK-10): > 100 µM (inactive)
- GI50 (K562): > 100 µM (inactive)
- GI50 (HCC 2998): > 100 µM (inactive)
- GI50 (UACC-257): > 100 µM (inactive)
- GI50 (SK-OV-3): > 100 µM (inactive)
- GI50 (HOP-92): > 100 µM (inactive)
- GI50 (NCI-H23): > 100 µM (inactive)
- GI50 (U-251): > 100 µM (inactive)
- GI50 (SR): > 100 µM (inactive)

Compound: O=C(NC(=O)c1cn(CCNCCO)c(=O)[nH]c1=O)OCc1ccccc1
- GI50 (M19-MEL): > 100 µM (inactive)
- GI50 (SF-295): > 100 µM (inactive)
- GI50 (OVCAR-3): > 100 µM (inactive)
- GI50 (CCRF-CEM): > 100 µM (inactive)
- GI50 (OVCAR-4): > 100 µM (inactive)
- GI50 (HOP-62): > 100 µM (inactive)
- GI50 (TK-10): > 100 µM (inactive)
- GI50 (K562): > 100 µM (inactive)
- GI50 (ACHN): > 100 µM (inactive)
- GI50 (SK-OV-3): > 100 µM (inactive)
- GI50 (HOP-92): > 100 µM (inactive)
- GI50 (NCI-H23): > 100 µM (inactive)
- GI50 (U-251): > 100 µM (inactive)
- GI50 (SR): > 100 µM (inactive)

Compound: COc1ccc(C2S/C(=C\c3ccc(OC)cc3OC)C(=O)N2NC(=O)Cc2ccccc2)cc1 (configuration not stated)
- GI50 (M19-MEL): > 100 µM (inactive)
- GI50 (SF-295): > 100 µM (inactive)
- GI50 (CCRF-CEM): 89.5 µM (inactive)
- GI50 (OVCAR-4): > 100 µM (inactive)
- GI50 (HOP-62): > 100 µM (inactive)
- GI50 (TK-10): > 100 µM (inactive)
- GI50 (K562): 98.9 µM (inactive)
- GI50 (UACC-257): > 100 µM (inactive)
- GI50 (ACHN): > 100 µM (inactive)
- GI50 (SK-OV-3): > 100 µM (inactive)
- GI50 (HOP-92): > 100 µM (inactive)
- GI50 (NCI-H23): > 100 µM (inactive)
- GI50 (U-251): > 100 µM (inactive)
- GI50 (SR): > 100 µM (inactive)

Compound: CN(C)CCONC(=O)C12CC3CC(CC(C3)C1)C2
- GI50 (M19-MEL): > 100 µM (inactive)
- GI50 (SF-295): > 100 µM (inactive)
- GI50 (OVCAR-3): > 100 µM (inactive)
- GI50 (CCRF-CEM): > 100 µM (inactive)
- GI50 (HOP-62): > 100 µM (inactive)
- GI50 (TK-10): > 100 µM (inactive)
- GI50 (K562): > 100 µM (inactive)
- GI50 (UACC-257): > 100 µM (inactive)
- GI50 (ACHN): > 100 µM (inactive)
- GI50 (SK-OV-3): > 100 µM (inactive)
- GI50 (HOP-92): > 100 µM (inactive)
- GI50 (NCI-H23): > 100 µM (inactive)
- GI50 (U-251): > 100 µM (inactive)
- GI50 (SR): > 100 µM (inactive)

Compound: CN(C)/N=C(/c1nc2ccc([N+](=O)[O-])cc2nc1O)C(O)c1ccco1 (configuration not stated)
- GI50 (M19-MEL): > 100 µM (inactive)
- GI50 (SF-295): > 100 µM (inactive)
- GI50 (OVCAR-3): > 100 µM (inactive)
- GI50 (CCRF-CEM): > 100 µM (inactive)
- GI50 (OVCAR-4): > 100 µM (inactive)
- GI50 (HOP-62): 72.1 µM (inactive)
- GI50 (K562): > 100 µM (inactive)
- GI50 (HCC 2998): 53 µM (inactive)
- GI50 (UACC-257): > 100 µM (inactive)
- GI50 (ACHN): 35.4 µM (inactive)
- GI50 (SK-OV-3): > 100 µM (inactive)
- GI50 (HOP-92): > 100 µM (inactive)
- GI50 (NCI-H23): > 100 µM (inactive)
- GI50 (U-251): > 100 µM (inactive)
- GI50 (SR): > 100 µM (inactive)

Compound: COc1cc(OC)c2c(c1)C(=O)C(CC(C)O)=CC2=O (configuration not stated)
- GI50 (M19-MEL): 3.42 µM (inactive)
- GI50 (SF-295): 14.2 µM (inactive)
- GI50 (OVCAR-3): 5.82 µM (inactive)
- GI50 (CCRF-CEM): 4.22 µM (inactive)
- GI50 (OVCAR-4): 17.8 µM (inactive)
- GI50 (HOP-62): 19.4 µM (inactive)
- GI50 (TK-10): 19.9 µM (inactive)
- GI50 (K562): 14.9 µM (inactive)
- GI50 (HCC 2998): 28.6 µM (inactive)
- GI50 (UACC-257): 16.6 µM (inactive)
- GI50 (ACHN): 16.6 µM (inactive)
- GI50 (SK-OV-3): 18 µM (inactive)
- GI50 (HOP-92): 11.1 µM (inactive)
- GI50 (NCI-H23): 19.7 µM (inactive)
- GI50 (U-251): 17.9 µM (inactive)
- GI50 (SR): 2 µM (inactive)

Compound: CCc1cccc(C(C)CC)c1/N=C(/NC(=O)c1ccccc1C(=O)N/C(=N/c1c(CC)cccc1C(C)CC)SC)SC (configuration not stated)
- GI50 (M19-MEL): 51.4 µM (inactive)
- GI50 (SF-295): 37.4 µM (inactive)
- GI50 (OVCAR-3): 36.6 µM (inactive)
- GI50 (CCRF-CEM): 27.5 µM (inactive)
- GI50 (OVCAR-4): 54.3 µM (inactive)
- GI50 (HOP-62): 31.1 µM (inactive)
- GI50 (TK-10): 30.8 µM (inactive)
- GI50 (K562): 27.7 µM (inactive)
- GI50 (HCC 2998): 49.8 µM (inactive)
- GI50 (UACC-257): 54.3 µM (inactive)
- GI50 (ACHN): 36.1 µM (inactive)
- GI50 (SK-OV-3): 28.6 µM (inactive)
- GI50 (HOP-92): 10.5 µM (inactive)
- GI50 (NCI-H23): 31.9 µM (inactive)
- GI50 (U-251): 26.2 µM (inactive)
- GI50 (SR): 39.6 µM (inactive)

Compound: CC(=O)N1c2ccccc2N(C(C)=O)C1c1ccc(C2N(C(C)=O)c3ccccc3N2C(C)=O)[nH]1
- GI50 (M19-MEL): > 100 µM (inactive)
- GI50 (SF-295): > 100 µM (inactive)
- GI50 (OVCAR-3): > 100 µM (inactive)
- GI50 (CCRF-CEM): > 100 µM (inactive)
- GI50 (OVCAR-4): > 100 µM (inactive)
- GI50 (HOP-62): > 100 µM (inactive)
- GI50 (TK-10): > 100 µM (inactive)
- GI50 (K562): > 100 µM (inactive)
- GI50 (HCC 2998): > 100 µM (inactive)
- GI50 (UACC-257): > 100 µM (inactive)
- GI50 (SK-OV-3): > 100 µM (inactive)
- GI50 (HOP-92): > 100 µM (inactive)
- GI50 (NCI-H23): > 100 µM (inactive)
- GI50 (U-251): > 100 µM (inactive)
- GI50 (SR): > 100 µM (inactive)

Compound: CC1CN(c2ccc(Cl)cc2)CC(C)OC(=O)O1 (configuration not stated)
- GI50 (M19-MEL): > 100 µM (inactive)
- GI50 (SF-295): > 100 µM (inactive)
- GI50 (OVCAR-3): > 100 µM (inactive)
- GI50 (CCRF-CEM): > 100 µM (inactive)
- GI50 (OVCAR-4): > 100 µM (inactive)
- GI50 (HOP-62): > 100 µM (inactive)
- GI50 (TK-10): > 100 µM (inactive)
- GI50 (K562): > 100 µM (inactive)
- GI50 (HCC 2998): > 100 µM (inactive)
- GI50 (UACC-257): > 100 µM (inactive)
- GI50 (ACHN): > 100 µM (inactive)
- GI50 (SK-OV-3): > 100 µM (inactive)
- GI50 (HOP-92): > 100 µM (inactive)
- GI50 (NCI-H23): > 100 µM (inactive)
- GI50 (U-251): > 100 µM (inactive)
- GI50 (SR): > 100 µM (inactive)

Compound: Cc1ccc(S(=O)(=O)N/N=C/c2oc(-c3ccncc3)c(-c3ccncc3)c2[N+](=O)[O-])cc1
- GI50 (M19-MEL): > 100 µM (inactive)
- GI50 (SF-295): > 100 µM (inactive)
- GI50 (OVCAR-3): > 100 µM (inactive)
- GI50 (CCRF-CEM): > 100 µM (inactive)
- GI50 (OVCAR-4): > 100 µM (inactive)
- GI50 (HOP-62): > 100 µM (inactive)
- GI50 (TK-10): > 100 µM (inactive)
- GI50 (K562): > 100 µM (inactive)
- GI50 (HCC 2998): > 100 µM (inactive)
- GI50 (UACC-257): > 100 µM (inactive)
- GI50 (ACHN): > 100 µM (inactive)
- GI50 (SK-OV-3): > 100 µM (inactive)
- GI50 (NCI-H23): > 100 µM (inactive)
- GI50 (U-251): > 100 µM (inactive)
- GI50 (SR): > 100 µM (inactive)

Compound: CN1C(OCc2ccccc2)c2c(ccc3c2OCO3)C2C=Cc3cc4c(cc3C21)OCO4 (configuration not stated)
- GI50 (M19-MEL): 0.19 µM (active)
- GI50 (SF-295): 1.47 µM (inactive)
- GI50 (OVCAR-3): 0.69 µM (active)
- GI50 (CCRF-CEM): 0.254 µM (active)
- GI50 (OVCAR-4): 1.69 µM (inactive)
- GI50 (HOP-62): 1.58 µM (inactive)
- GI50 (TK-10): 1.89 µM (inactive)
- GI50 (K562): 0.611 µM (active)
- GI50 (HCC 2998): 1.63 µM (inactive)
- GI50 (UACC-257): 1.37 µM (inactive)
- GI50 (ACHN): 1.51 µM (inactive)
- GI50 (SK-OV-3): 1.22 µM (inactive)
- GI50 (HOP-92): 1.08 µM (active)
- GI50 (NCI-H23): 1.38 µM (inactive)
- GI50 (U-251): 1.51 µM (inactive)
- GI50 (SR): 0.237 µM (active)

Compound: COC(=O)CCC(NC(=S)N/N=C(\C)c1ccccn1)C(=O)OC (configuration not stated)
- GI50 (M19-MEL): 37.2 µM (inactive)
- GI50 (SF-295): 59.2 µM (inactive)
- GI50 (OVCAR-3): 38.8 µM (inactive)
- GI50 (CCRF-CEM): 29.6 µM (inactive)
- GI50 (OVCAR-4): > 100 µM (inactive)
- GI50 (HOP-62): 57.3 µM (inactive)
- GI50 (TK-10): > 100 µM (inactive)
- GI50 (K562): 53.7 µM (inactive)
- GI50 (HCC 2998): > 100 µM (inactive)
- GI50 (UACC-257): 97.5 µM (inactive)
- GI50 (ACHN): 28.5 µM (inactive)
- GI50 (SK-OV-3): > 100 µM (inactive)
- GI50 (HOP-92): 41.7 µM (inactive)
- GI50 (NCI-H23): > 100 µM (inactive)
- GI50 (U-251): 53.2 µM (inactive)
- GI50 (SR): > 10 µM (inactive)

Compound: C/C(=C\c1ccccc1)C(O)S(=O)(=O)O (configuration not stated)
- GI50 (M19-MEL): > 100 µM (inactive)
- GI50 (SF-295): > 100 µM (inactive)
- GI50 (OVCAR-3): > 100 µM (inactive)
- GI50 (CCRF-CEM): > 100 µM (inactive)
- GI50 (OVCAR-4): > 100 µM (inactive)
- GI50 (HOP-62): > 100 µM (inactive)
- GI50 (TK-10): > 100 µM (inactive)
- GI50 (K562): > 100 µM (inactive)
- GI50 (HCC 2998): > 100 µM (inactive)
- GI50 (UACC-257): > 100 µM (inactive)
- GI50 (ACHN): > 100 µM (inactive)
- GI50 (SK-OV-3): > 100 µM (inactive)
- GI50 (NCI-H23): > 100 µM (inactive)
- GI50 (U-251): > 100 µM (inactive)
- GI50 (SR): > 100 µM (inactive)
